{"source": "patent US8507459B2", "about": "“Use of adenosine aspartate for the preparation of pharmaceutical products for the treatment of liver cancer” (Universidad Nacional Autonnoma de Mexico, priority 2007, dated 2013)", "key": {"[1]": {"test_system": "preneoplastic lesions in rat liver", "experiment": "Resistant hepatocyte model, 25 days, histochemical GGT staining of liver sections (Example 2)", "format": "in vivo", "experimental": "(§1) For the experimental phase in its first stage, male rats of the Fisher 344 strain were used, having 180 to 200 grams body weight, which were bred and kept in an Animal Breeding and Experimentation Unit of the Advanced Research and Studies Center, in a controlled environment with 12-hour cycles of light/darkness at a temperature of 23° C., in hygiene conditions and with free access to food and water. The preneoplastic lesion outgrowth in the liver was induced to the rats by using the resistant hepatocyte model (Semple-Roberts E, Hayes M A, Armstrong D, Becker R A, Racz W J, and Farber E. (1987) Alternative methods of selecting rat hepatocellular nodules resistant to 2-acetylaminofluorence. Int, J. Cancer. 40:643-6451) modified by our research group (Carrasc-Legleu C E, Marquez-Rosado L, Fattel-Fazenda S, Arce-PopocaE, Pérez-Carreón JI, VIIIa-Treviño S. (2004) Chemoprotective effect of caffeic acid phenethyl ester on promotion in a medium-term rat hepatocarcinogenesis assay. Int J. Cancer. 108:488-92).\nOn days 7, 8, and 9 after the beginning, a dose of 20 mg/kg of weight of 2-acetylaminofluorene (hereinafter called as 2AAF) was administered as carcinogen promoter, and on day 10 after the beginning, rats underwent a partial hepatectomy (HP) of 70% of hepatic mass (the administration of these products along with the hepatectomy is taken into consideration as the entire treatment for this experiment). Lastly, the rats were sacrificed at day 25.\nIn order to show the beneficial effect of adenosine aspartate in preneoplastic lesions, 6 different experimental groups were designed, as shown in FIG. 2.\nThe first group (TC), having 8 rats, was administered with the entire treatment; this group was used as positive control of the preneoplastic lesion outgrowth. The second group (IFC-1), having 8 animals, was administered with a pharmacologically effective dose of adenosine aspartate, which for this case, was 50 mg/kg of body weight dissolved in a physiological saline solution, pH 7.4 with 0.5% carboxymethyl-cellulose, replacing DEN carcinogen primer. The third group (IFC-P), having 8 animals, was administered with a pharmacologically effective dose of adenosine aspartate, which for this case, was 50 mg/kg of body weight dissolved in a physiological saline solution, pH 7.4 with 0.5% carboxymethyl-cellulose, replacing 2-AAF carcinogen promoter. In the fourth group (IFC-IP), with 7 animals, both the DEN carcinogen primer and the 2AAF carcinogen promoter were substituted by adenosine aspartate in pharmacologically effective doses, which in this case, was 50 mg/kg of body weight dissolved in a physiological saline solution, pH 7.4 with 0.5% carboxymethyl-cellulose. The fifth group (C-2AAF), having 6 animals, was administered with 2AAF only, being used as control of the administration of adenosine aspartate at the beginning of the second group (IFC-I. Finally, the sixth group(C-DEN), having 7 animals, which received DEN product only, was used as control of the administration of adenosine aspartate in the promotion of group 3 (IFC-P).\nWhen ending the cycle, all groups underwent a partial hepatectomy. […] 17(8):517-526.) Briefly, sections were set in absolute ethanol for 10 min at −20° C.; subsequently, they were treated with a solution that contains 125 μg/ml of γ-glutamil-4-methoxi-2-naphthylamide (GMNA), 0.5 mg/ml of glycyl-glycine and 0.5 mg/ml of Fast Blue in 100 mM of Tris base and they were incubated for 30 minutes at room temperature; finally, they were washed with saline solution, the precipitated were set with 100 mM cupric sulfate solution. All reagents acquired from Sigma Chemical Co. in St Louis, Mo., USA. The enzyme activity was expressed in areas stained with dark red color. […]"}, "[2]": {"test_system": "preneoplastic lesions in rat liver", "experiment": "Resistant hepatocyte model, adenosine aspartate given after cancer induction, sacrifice at month 12 (Example 1)", "format": "in vivo", "experimental": "as §1\nAs can be observed in this figure, this second experiment (IFC) consisted first in administering by intraperitoneal route, one single dose of 200 mg/kg of weight of DEN as carcinogen primer. Additionally, on days 7, 8, and 9 after the beginning, a dose of 20 mg/kg of weight of 2AAF was administered as carcinogen promoter, and on day 10 after the beginning, rats underwent an HP. […]"}, "[3]": {"test_system": "alpha-fetoprotein", "conditions": "cirrhotic patients with slightly high levels; cited from earlier work"}, "[4]": {"test_system": "cirrhosis of the liver", "conditions": "cited from earlier work"}, "[5]": {"conditions": "group IFC-I: adenosine aspartate 50 mg/kg as primer replacing DEN, day 25"}, "[6]": {"conditions": "group IFC-IP: adenosine aspartate 50 mg/kg as primer and promoter replacing DEN and 2AAF, day 25"}, "[7]": {"conditions": "group IFC-P: adenosine aspartate 50 mg/kg as promoter replacing 2AAF, day 25"}}, "data": [{"substance": "adenosine aspartate", "values": [{"measurement": "effect over the preneoplastic lesion outgrowth compared with respective control groups", "setting": "[1]; as primer (IFC-I) or as promoter (IFC-P), vs C-2AAF and C-DEN", "value": "no effect"}, {"measurement": "average of positive GGT foci/cm^2 regarding the control group with the entire treatment (TC = 100%)", "setting": "[1]; [5]", "value": 1.3, "unit": "%"}, {"measurement": "positive GGT area regarding the control group with the entire treatment (TC = 100%)", "setting": "[1]; [5]", "value": 0.4, "unit": "%"}, {"measurement": "positive GGT arborescences in liver", "setting": "[1]; group IFC-I: as primer", "value": "some livers presented positive GGT arborescences"}, {"measurement": "number of positive GGT foci/cm^2 regarding the control group with the entire treatment (TC = 100%)", "setting": "[1]; [6]", "value": 0.2, "unit": "%"}, {"measurement": "positive GGT area regarding the control group with the entire treatment (TC = 100%)", "setting": "[1]; [6]", "value": 0.08, "unit": "%"}, {"measurement": "development of preneoplastic lesions", "setting": "[1]; group IFC-IP: as primer and as promoter", "value": "no preneoplastic lesions were developed"}, {"measurement": "average of positive GGT foci/cm^2 regarding the control group with the entire treatment (TC = 100%)", "setting": "[1]; [7]", "value": 7.1, "unit": "%"}, {"measurement": "positive GGT area regarding the control group with the entire treatment (TC = 100%)", "setting": "[1]; [7]", "value": 4.6, "unit": "%"}, {"measurement": "positive GGT arborescences and preneoplastic lesions in liver", "setting": "[1]; group IFC-P: as promoter", "value": "positive GGT arborescences were not observed but small preneoplastic lesions were observed"}, {"measurement": "alterations (number and area) compared with control groups C-2AAF and C-DEN", "setting": "[1]; groups IFC-I and IFC-P", "value": "lower in number as well as in area"}, {"measurement": "effect on already installed preneoplastic lesions", "setting": "[2]; 60 mg/kg every 3 days from month 8 until month 12", "value": "reversal effect"}, {"measurement": "alterations of cancer or preneoplastic lesions", "setting": "[2]; administered after a product used to induce cancer, 60 mg/kg every 3 days from month 8", "value": "no suggestive alterations of cancer or preneoplastic lesions were present"}, {"measurement": "serum levels of alpha-fetoprotein", "setting": "[3]", "value": "reduces serum levels of alpha-fetoprotein"}, {"measurement": "accumulation of collagen", "setting": "[4]", "value": "reducing the accumulation of collagen"}]}]}
